PubChem BioAssay (NCI)
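These data come from cells grown in 96-well plates and exposed to compound for 48 hours at five concentrations. GI50: concentration for 50% inhibition of growth. TGI denotes the concentration required for complete inhibition of growth.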

Columns and labels:
Test in all cases: DTP human tumour cell line panel, 48 h
[1] = system: 786-0 renal
[2] = system: T-47D breast
[3] = system: ACHN renal
[4] = system: U251 CNS
[5] = system: HOP-92 NSCLC
[6] = system: MALME-3M melanoma
[7] = system: SK-OV-3 ovarian
[8] = system: LOX IMVI melanoma
[9] = system: SK-MEL-28 melanoma
[10] = system: SW-620 colon

Row | Compound | GI50 [1] | TGI [1] | GI50 [2] | TGI [2] | GI50 [3] | TGI [3] | GI50 [4] | TGI [4] | GI50 [5] | TGI [5] | GI50 [6] | TGI [6] | GI50 [7] | TGI [7] | GI50 [8] | TGI [8] | GI50 [9] | TGI [9] | GI50 [10] | TGI [10]
1 | CCOC(=O)c1c(C(F)(F)F)n([O-])c2ccc(Cl)cc2[n+]1=O | 2.11 µM | 3.71 µM | 2.03 µM | 4.38 µM | 1.69 µM | 3.14 µM | 1.75 µM | 3.36 µM | 1.17 µM | 2.64 µM | 1.73 µM | 3.42 µM | 4.14 µM | 16.1 µM | 1.57 µM | 3.08 µM | 1.89 µM | 3.58 µM | 1.87 µM | 3.74 µM
2 | Cc1ccc(-c2c3c(N)nc(-c4ccncc4)nc3nc3c2c(C)nn3-c2ccccc2)cc1 | 12.4 µM | > 37.5 µM | 1.84 µM | > 37.5 µM | > 37.5 µM | > 37.5 µM | 6.12 µM | 31.7 µM | 5.61 µM | 22 µM | 7.73 µM | 16.2 µM | 3.41 µM | 10.2 µM | 2.33 µM | 14.5 µM | 7.69 µM | > 37.5 µM | 9.99 µM | > 37.5 µM
3 | CCCCCCCCn1ccc2cc(NC(=O)Cn3cc(CN4CCC(C)CC4)nn3)ccc21 | 1.48 µM | 2.81 µM | 1.76 µM | 4.08 µM | 1.63 µM | 2.99 µM | 1.7 µM | 3.15 µM | 1.16 µM | 2.57 µM | 1.66 µM | 3.12 µM | 1.9 µM | 3.7 µM | 1.64 µM | 3.05 µM |  |  | 1.77 µM | 3.46 µM
4 | Cc1ccc(C2NC(=S)N3C(c4ccc(C)cc4)NC(=S)N23)cc1 (stereo not given) | 5.82 µM | 19.9 µM | 5.24 µM | 19.6 µM | 10.1 µM | 21.7 µM | 3.91 µM | 14.3 µM |  |  | 12.4 µM | 28.1 µM | 4.77 µM | 15.5 µM | 8.84 µM | 22.1 µM | 11.5 µM | 24.2 µM | 3.78 µM | 17.9 µM
5 | Cc1cn(C2CC(N=[N+]=[N-])C(CO)O2)c(=O)[nH]c1=O (stereo not given) | > 1000 µM | > 1000 µM | > 1000 µM | > 1000 µM | > 1000 µM | > 1000 µM |  |  | > 1000 µM | > 1000 µM | > 1000 µM | > 1000 µM | > 1000 µM | > 1000 µM | 532 µM | > 1000 µM |  |  | > 1000 µM | > 1000 µM
6 | Nc1ncnc2c1nc(N)n2C1OC(CO)C(O)C1O (stereo not given) | 1.55 µM | 3.71 µM | 0.449 µM | 2.68 µM | 0.348 µM | > 100 µM | 1.35 µM | 7.06 µM | 0.34 µM | 1.83 µM |  |  | 0.52 µM | 3.45 µM | 0.212 µM | 1.17 µM | 0.267 µM | 1.33 µM | 0.182 µM | 1.31 µM
